From US20070049564A1 (Wyeth, priority 2005, published 2007)
In brackets after ≈: the same amount, converted by molar mass. Like-named read-outs stand apart in the source and are kept apart here.

Experiments:
S. aureus GC 6469 = test: MIC, broth microdilution; conditions: Staphylococcus aureus
S. pyogenes GC 4563 = test: MIC, broth microdilution; conditions: Streptococcus pyogenes
E. faecium GC 2243 = test: MIC, broth microdilution; conditions: Enterococcus faecium
E. faecium GC 4556 = test: MIC, broth microdilution; conditions: Enterococcus faecium
E. coli GC 2271 = test: MIC, broth microdilution; conditions: Escherichia coli
c. albicans GC 3066 = test: MIC, broth microdilution
E. coli GC 2270 = test: MIC, broth microdilution; conditions: Escherichia coli
S. agalactiae GC 4564 = test: MIC, broth microdilution; conditions: Streptococcus agalactiae
E. coli GC 1073 = test: MIC, broth microdilution; conditions: Escherichia coli
E. coli = test: Range of MIC for E. coli strains; conditions: Escherichia coli
E. coli GC 2235 = test: MIC, broth microdilution; conditions: Escherichia coli
Staph. = test: Range of MIC for Staph. strains, including MRSA; conditions: Staphylococcus aureus
E. coli GC 2236 = test: MIC, broth microdilution; conditions: Escherichia coli
Experimental: Antimicrobial susceptibility testing. The in vitro activities of the antibiotics are determined by the broth microdilution method as recommended by the National Committee for Clinical Laboratory Standards (NCCLS) (1). Mueller-Hinton II broth (MHBII)(BBL Cockeysville, Md.) is the medium employed in the testing procedures. Microtiter plates containing serial dilutions of each antimicrobial agent are inoculated with each organism to yield the appropriate density (10^5 CFU/ml) in a 100 μl final volume. The plates are incubated for 18-22 hours at 35° C. in ambient air. […] Standard Pharmacological Test Procedures
Presented in Tables I-XIII are representative compounds of Formula I which were evaluated against a panel of 40 selected gram-positive and gram-negative bacteria strains by pre-incubation in water, mouse serum or human serum. Representative compounds were first incubated in mouse serum for an hour prior to the in vitro testing against a panel of selected gram-positive and gram-negative bacteria strains. All compounds were also pre-incubated in water for an hour prior to testing as control. Representative compounds of Formula I were incubated in human serum prior to MIC determination.

S. aureus GC 1079 = test: MIC, broth microdilution; conditions: Staphylococcus aureus
E. coli GC 2233 = test: MIC, broth microdilution; conditions: Escherichia coli
E. faecalis GC 4555 = test: MIC, broth microdilution; conditions: Enterococcus faecalis
E. faecalis GC 2265 = test: MIC, broth microdilution; conditions: Enterococcus faecalis
S. typhimurium GC 2172 = test: MIC, broth microdilution; conditions: Salmonella enterica, TYPHIMURIUM
E. coli GC 3226 = test: MIC, broth microdilution; conditions: Escherichia coli
S. aureus GC 6335 = test: MIC, broth microdilution; conditions: Staphylococcus aureus

SMILES: CN(C)c1cc(NC(=O)CN(C(=O)OCOC(=O)c2ccc(C(C)(C)C)cc2)C(C)(C)C)c(O)c2c1C[C@H]1C[C@H]3[C@H](N(C)C)C(O)=C(C(N)=O)C(=O)[C@@]3(O)C(O)=C1C2=O [Example 43, ({[(2-{[(5aR,6aS,7S,10aS)-9-(aminocarbonyl)-4,7-bis(dimethylamino)-1,8,10a,11-tetrahydroxy-10,12-dioxo-5,5a,6,6a,7,10,10a,12-octahydrotetracen-2-yl]amino}-2-oxoethyl)(tert-butyl)amino]carbonyl}oxy)methyl 4-tert-butylbenzoate]
- MIC (S. aureus GC 6469; GC6469, read-out: MINIMAL INHIBITORY CONCENTRATION MIC, pre-incubated in Human Serum): 32 µg/mL (≈ 39 µM)
- MIC (S. aureus GC 6469; GC6469, read-out: MINIMAL INHIBITORY CONCENTRATION MIC, pre-incubated in Mouse Serum): 1 µg/mL (≈ 1.22 µM)
- MIC (S. aureus GC 6469; GC6469, read-out: MINIMAL INHIBITORY CONCENTRATION MIC, pre-incubated in Water): > 64 µg/mL
- MIC (S. pyogenes GC 4563; GC4563, read-out: MINIMAL INHIBITORY CONCENTRATION MIC, pre-incubated in Human Serum): < 0.06 µg/mL
- MIC (S. pyogenes GC 4563; GC4563, read-out: MINIMAL INHIBITORY CONCENTRATION MIC, pre-incubated in Mouse Serum): < 0.06 µg/mL
- MIC (S. pyogenes GC 4563; GC4563, read-out: MINIMAL INHIBITORY CONCENTRATION MIC, pre-incubated in Water): < 0.06 µg/mL
- MIC (E. faecium GC 2243; GC2243, read-out: MINIMAL INHIBITORY CONCENTRATION MIC, pre-incubated in Human Serum): 0.25 µg/mL (≈ 0.305 µM)
- MIC (E. faecium GC 2243; GC2243, read-out: MINIMAL INHIBITORY CONCENTRATION MIC, pre-incubated in Mouse Serum): 0.12 µg/mL (≈ 0.146 µM)
- MIC (E. faecium GC 2243; GC2243, read-out: MINIMAL INHIBITORY CONCENTRATION MIC, pre-incubated in Water): 0.25 µg/mL (≈ 0.305 µM)
- MIC (E. faecium GC 4556; GC4556, read-out: MINIMAL INHIBITORY CONCENTRATION MIC, pre-incubated in Human Serum): 8 µg/mL (≈ 9.76 µM)
- MIC (E. faecium GC 4556; GC4556, read-out: MINIMAL INHIBITORY CONCENTRATION MIC, pre-incubated in Mouse Serum): 0.5 µg/mL (≈ 0.61 µM)
- MIC (E. faecium GC 4556; GC4556, read-out: MINIMAL INHIBITORY CONCENTRATION MIC, pre-incubated in Water): 16 µg/mL (≈ 19.5 µM)
- MIC (E. coli GC 2271; GC2271, read-out: MINIMAL INHIBITORY CONCENTRATION MIC, pre-incubated in Human Serum): > 64 µg/mL
- MIC (E. coli GC 2271; GC2271, read-out: MINIMAL INHIBITORY CONCENTRATION MIC, pre-incubated in Mouse Serum): 0.25 µg/mL (≈ 0.305 µM)
- MIC (E. coli GC 2271; GC2271, read-out: MINIMAL INHIBITORY CONCENTRATION MIC, pre-incubated in Water): > 64 µg/mL
- MIC (c. albicans GC 3066; Candida albicans, GC3066, read-out: MINIMAL INHIBITORY CONCENTRATION MIC): > 64 µg/mL
- MINIMAL INHIBITORY CONCENTRATION MIC (c. albicans GC 3066; pre-incubated in Human Serum): >64 UG/ML
- MINIMAL INHIBITORY CONCENTRATION MIC (c. albicans GC 3066; pre-incubated in Mouse Serum): >64 UG/ML
- MIC (E. coli GC 2270; GC2270, read-out: MINIMAL INHIBITORY CONCENTRATION MIC, pre-incubated in Human Serum): > 64 µg/mL
- MIC (E. coli GC 2270; GC2270, read-out: MINIMAL INHIBITORY CONCENTRATION MIC, pre-incubated in Mouse Serum): 0.25 µg/mL (≈ 0.305 µM)
- MIC (E. coli GC 2270; GC2270, read-out: MINIMAL INHIBITORY CONCENTRATION MIC, pre-incubated in Water): > 64 µg/mL
- MIC (S. agalactiae GC 4564; GC4564, read-out: MINIMAL INHIBITORY CONCENTRATION MIC, pre-incubated in Human Serum): 2 µg/mL (≈ 2.44 µM)
- MIC (S. agalactiae GC 4564; GC4564, read-out: MINIMAL INHIBITORY CONCENTRATION MIC, pre-incubated in Mouse Serum): < 0.06 µg/mL
- MIC (S. agalactiae GC 4564; GC4564, read-out: MINIMAL INHIBITORY CONCENTRATION MIC, pre-incubated in Water): 2 µg/mL (≈ 2.44 µM)
- MIC (E. coli GC 1073; GC1073, read-out: MINIMAL INHIBITORY CONCENTRATION MIC, pre-incubated in Human Serum): > 64 µg/mL
- MIC (E. coli GC 1073; GC1073, read-out: MINIMAL INHIBITORY CONCENTRATION MIC, pre-incubated in Mouse Serum): 0.5 µg/mL (≈ 0.61 µM)
- MIC (E. coli GC 1073; GC1073, read-out: MINIMAL INHIBITORY CONCENTRATION MIC, pre-incubated in Water): > 64 µg/mL
- MIC (E. coli; 20 h, read-out: Range of MIC, E. coli (Mouse Serum)): 0.25 to 2 µg/mL (≈ 0.305 to 2.44 µM)
- MIC (E. coli; read-out: Minimum inhibitory concentration (MIC), E. coli (Human Serum)): > 64 µg/mL
- MIC (E. coli; read-out: Minimum inhibitory concentration (MIC), E. coli (water)): > 64 µg/mL
- MIC (E. coli; read-out: Range of MIC, E. coli (Water)): > 64 µg/mL
- MIC (E. coli GC 2235; GC2235, read-out: MINIMAL INHIBITORY CONCENTRATION MIC, pre-incubated in Human Serum): > 64 µg/mL
- MIC (E. coli GC 2235; GC2235, read-out: MINIMAL INHIBITORY CONCENTRATION MIC, pre-incubated in Mouse Serum): 0.25 µg/mL (≈ 0.305 µM)
- MIC (E. coli GC 2235; GC2235, read-out: MINIMAL INHIBITORY CONCENTRATION MIC, pre-incubated in Water): > 64 µg/mL
- MIC (Staph.; MRSA, read-out: Range of MIC, Staph (Mouse Serum)): 0.5 to 2 µg/mL (≈ 0.61 to 2.44 µM)
- MIC (Staph.; read-out: Minimum inhibitory concentration (MIC), Staph (Human Serum)): 4 to 64 µg/mL (≈ 4.88 to 78.1 µM)
- MIC (E. coli GC 2236; GC2236, read-out: MINIMAL INHIBITORY CONCENTRATION MIC, pre-incubated in Human Serum): > 64 µg/mL
- MIC (E. coli GC 2236; GC2236, read-out: MINIMAL INHIBITORY CONCENTRATION MIC, pre-incubated in Mouse Serum): 0.5 µg/mL (≈ 0.61 µM)
- MIC (E. coli GC 2236; GC2236, read-out: MINIMAL INHIBITORY CONCENTRATION MIC, pre-incubated in Water): > 64 µg/mL
- MIC (S. aureus GC 1079; GC1079, read-out: MINIMAL INHIBITORY CONCENTRATION MIC, pre-incubated in Human Serum): 32 µg/mL (≈ 39 µM)
- MIC (S. aureus GC 1079; GC1079, read-out: MINIMAL INHIBITORY CONCENTRATION MIC, pre-incubated in Mouse Serum): 1 µg/mL (≈ 1.22 µM)
- MIC (S. aureus GC 1079; GC1079, read-out: MINIMAL INHIBITORY CONCENTRATION MIC, pre-incubated in Water): 64 µg/mL (≈ 78.1 µM)
- MIC (E. coli GC 2233; GC2233, read-out: MINIMAL INHIBITORY CONCENTRATION MIC, pre-incubated in Human Serum): > 64 µg/mL
- MIC (E. coli GC 2233; GC2233, read-out: MINIMAL INHIBITORY CONCENTRATION MIC, pre-incubated in Mouse Serum): 0.5 µg/mL (≈ 0.61 µM)
- MIC (E. coli GC 2233; GC2233, read-out: MINIMAL INHIBITORY CONCENTRATION MIC, pre-incubated in Water): > 64 µg/mL
- MIC (E. faecalis GC 4555; GC4555, read-out: MINIMAL INHIBITORY CONCENTRATION MIC, pre-incubated in Human Serum): 8 µg/mL (≈ 9.76 µM)
- MIC (E. faecalis GC 4555; GC4555, read-out: MINIMAL INHIBITORY CONCENTRATION MIC, pre-incubated in Mouse Serum): 0.5 µg/mL (≈ 0.61 µM)
- MIC (E. faecalis GC 4555; GC4555, read-out: MINIMAL INHIBITORY CONCENTRATION MIC, pre-incubated in Water): 32 µg/mL (≈ 39 µM)
- MIC (E. faecalis GC 2265; GC2265, read-out: MINIMAL INHIBITORY CONCENTRATION MIC, pre-incubated in Human Serum): 8 µg/mL (≈ 9.76 µM)
- MIC (E. faecalis GC 2265; GC2265, read-out: MINIMAL INHIBITORY CONCENTRATION MIC, pre-incubated in Mouse Serum): 0.5 µg/mL (≈ 0.61 µM)
- MIC (E. faecalis GC 2265; GC2265, read-out: MINIMAL INHIBITORY CONCENTRATION MIC, pre-incubated in Water): 32 µg/mL (≈ 39 µM)
- MIC (S. typhimurium GC 2172; read-out: MINIMAL INHIBITORY CONCENTRATION MIC, pre-incubated in Human Serum): > 64 µg/mL
- MIC (S. typhimurium GC 2172; read-out: MINIMAL INHIBITORY CONCENTRATION MIC, pre-incubated in Mouse Serum): 2 µg/mL (≈ 2.44 µM)
- MIC (S. typhimurium GC 2172; read-out: MINIMAL INHIBITORY CONCENTRATION MIC, pre-incubated in Water): > 64 µg/mL
- MIC (E. coli GC 3226; GC3226, read-out: MINIMAL INHIBITORY CONCENTRATION MIC, pre-incubated in Human Serum): > 64 µg/mL
- MIC (E. coli GC 3226; GC3226, read-out: MINIMAL INHIBITORY CONCENTRATION MIC, pre-incubated in Mouse Serum): 1 µg/mL (≈ 1.22 µM)
- MIC (E. coli GC 3226; GC3226, read-out: MINIMAL INHIBITORY CONCENTRATION MIC, pre-incubated in Water): > 64 µg/mL
- MIC (S. aureus GC 6335; GC6335, read-out: MINIMAL INHIBITORY CONCENTRATION MIC, pre-incubated in Human Serum): 64 µg/mL (≈ 78.1 µM)
- MIC (S. aureus GC 6335; GC6335, read-out: MINIMAL INHIBITORY CONCENTRATION MIC, pre-incubated in Mouse Serum): 1 µg/mL (≈ 1.22 µM)
- MIC (S. aureus GC 6335; GC6335, read-out: MINIMAL INHIBITORY CONCENTRATION MIC, pre-incubated in Water): 64 µg/mL (≈ 78.1 µM)
